Measured values: PMC10952572, “Improved PIEZO1 agonism through 4‐benzoic acid modification of Yoda1” (British Journal of Pharmacology, 2023)

Experiments:
mPIEZO1 = target: T1, mPIEZO1 (Mus musculus, UniProt E2JF22); assay: Intracellular Ca2+ measurement (Fura-2) in mPIEZO1-TREx cells; format: cell-based; settings: for Peak ΔCa2+i (ΔF340/380), median fold difference compared to Yoda1: 10 μM compound, mPIEZO1-TREx cells, paired with 10 μM Yoda1; for Ca2+ response (agonist effect): 10 μM, cells overexpressing mPIEZO1, compared with Yoda1; for EC50: overexpressed mouse PIEZO1, calcium assays
T1 construct: expressed in transfected cells
T1 sequence (E2JF22 whole entry): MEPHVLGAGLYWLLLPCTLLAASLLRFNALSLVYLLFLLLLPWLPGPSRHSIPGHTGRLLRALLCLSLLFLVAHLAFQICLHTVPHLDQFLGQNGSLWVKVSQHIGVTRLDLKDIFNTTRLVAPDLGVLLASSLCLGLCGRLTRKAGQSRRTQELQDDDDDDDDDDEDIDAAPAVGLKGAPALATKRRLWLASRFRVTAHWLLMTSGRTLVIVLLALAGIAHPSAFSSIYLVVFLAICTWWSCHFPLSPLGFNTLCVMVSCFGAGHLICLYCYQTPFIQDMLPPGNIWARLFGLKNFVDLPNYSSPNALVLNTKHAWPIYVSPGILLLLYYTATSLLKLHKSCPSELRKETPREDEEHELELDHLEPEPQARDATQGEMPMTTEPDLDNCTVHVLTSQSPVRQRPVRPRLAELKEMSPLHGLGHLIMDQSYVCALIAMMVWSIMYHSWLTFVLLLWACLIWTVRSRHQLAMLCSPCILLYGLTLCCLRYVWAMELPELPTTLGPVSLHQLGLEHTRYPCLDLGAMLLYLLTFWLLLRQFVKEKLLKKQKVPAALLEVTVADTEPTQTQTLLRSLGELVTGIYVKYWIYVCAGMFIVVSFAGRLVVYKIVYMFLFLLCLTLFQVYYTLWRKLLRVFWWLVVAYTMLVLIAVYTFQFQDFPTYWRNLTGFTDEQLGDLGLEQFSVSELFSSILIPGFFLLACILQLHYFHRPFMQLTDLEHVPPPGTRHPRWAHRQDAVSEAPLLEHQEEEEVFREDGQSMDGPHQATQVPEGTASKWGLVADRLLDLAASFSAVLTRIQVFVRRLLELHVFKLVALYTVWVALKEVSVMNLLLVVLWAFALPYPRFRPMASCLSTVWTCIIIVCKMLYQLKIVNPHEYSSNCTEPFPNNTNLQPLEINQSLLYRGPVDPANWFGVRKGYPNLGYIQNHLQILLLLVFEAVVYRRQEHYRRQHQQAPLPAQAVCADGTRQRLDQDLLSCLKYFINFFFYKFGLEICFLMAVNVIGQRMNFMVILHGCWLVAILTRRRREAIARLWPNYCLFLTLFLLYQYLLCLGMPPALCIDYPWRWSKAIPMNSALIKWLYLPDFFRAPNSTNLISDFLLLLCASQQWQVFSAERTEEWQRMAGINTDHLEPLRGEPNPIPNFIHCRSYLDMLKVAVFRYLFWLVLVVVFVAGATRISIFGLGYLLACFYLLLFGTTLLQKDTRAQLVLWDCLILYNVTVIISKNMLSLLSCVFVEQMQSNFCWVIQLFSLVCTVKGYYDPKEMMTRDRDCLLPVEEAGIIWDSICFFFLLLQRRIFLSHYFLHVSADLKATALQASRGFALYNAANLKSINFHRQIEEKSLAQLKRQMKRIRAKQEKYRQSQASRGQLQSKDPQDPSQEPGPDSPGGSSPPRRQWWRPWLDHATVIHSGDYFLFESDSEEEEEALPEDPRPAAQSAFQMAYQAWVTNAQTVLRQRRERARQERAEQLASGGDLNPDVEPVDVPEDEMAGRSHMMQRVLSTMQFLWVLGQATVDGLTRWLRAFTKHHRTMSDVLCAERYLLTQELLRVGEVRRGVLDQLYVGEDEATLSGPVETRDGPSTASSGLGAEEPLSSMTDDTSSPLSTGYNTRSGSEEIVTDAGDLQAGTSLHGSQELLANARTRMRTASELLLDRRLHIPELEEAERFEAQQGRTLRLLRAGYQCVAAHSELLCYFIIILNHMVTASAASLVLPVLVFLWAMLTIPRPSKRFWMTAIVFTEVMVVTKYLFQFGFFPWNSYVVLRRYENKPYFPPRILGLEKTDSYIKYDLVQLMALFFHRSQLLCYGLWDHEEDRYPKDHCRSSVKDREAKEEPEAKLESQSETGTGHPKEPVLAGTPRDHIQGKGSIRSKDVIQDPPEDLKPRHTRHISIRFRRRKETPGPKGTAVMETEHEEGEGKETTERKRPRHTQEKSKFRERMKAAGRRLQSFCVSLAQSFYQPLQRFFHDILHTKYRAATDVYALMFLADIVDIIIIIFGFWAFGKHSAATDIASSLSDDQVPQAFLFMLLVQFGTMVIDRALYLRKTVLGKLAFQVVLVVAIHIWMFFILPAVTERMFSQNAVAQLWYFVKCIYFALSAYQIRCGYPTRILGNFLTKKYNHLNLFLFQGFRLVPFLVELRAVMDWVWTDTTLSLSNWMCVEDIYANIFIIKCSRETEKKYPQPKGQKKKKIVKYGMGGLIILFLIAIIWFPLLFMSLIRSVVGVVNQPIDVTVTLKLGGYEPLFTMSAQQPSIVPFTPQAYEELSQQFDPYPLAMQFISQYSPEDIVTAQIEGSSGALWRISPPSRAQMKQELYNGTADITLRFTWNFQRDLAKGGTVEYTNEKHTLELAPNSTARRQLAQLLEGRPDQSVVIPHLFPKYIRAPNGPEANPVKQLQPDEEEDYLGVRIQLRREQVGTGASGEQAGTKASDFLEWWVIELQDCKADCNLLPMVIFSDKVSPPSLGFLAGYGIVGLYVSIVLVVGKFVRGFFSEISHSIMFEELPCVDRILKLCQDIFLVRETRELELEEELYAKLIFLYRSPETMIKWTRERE
From the text: HEK T‐REx™ cells that constitutively overexpress murine PIEZO1 were generated as previously described (Blythe et al., [2019]). pcDNA3 mouse PIEZO1 (mPIEZO1) IRES green fluorescent protein (GFP), a gift from Ardem Patapoutian (Coste et al., [2010]), was used as a template to clone the mPIEZO1 coding sequence into pcDNA4/TO. Overlapping mPIEZO1 (forward primer 5′‐[…]‐3′ and reverse primer 5′‐[…]‐3′) and pcDNA4/TO (forward primer 5′‐[…]‐3′ and reverse primer 5′‐[…]‐3′) PCR products were assembled using Gibson Assembly (New England Biolabs). […] HEK T‐REx™ 293 cells were transfected with pcDNA4/TO‐mPIEZO1 using Lipofectamine 2000 (Invitrogen) and treated with 200 μg·ml^−1 zeocin to select stably transfected cells. Individual clones were isolated and analysed for expression using Yoda1 and intracellular Ca^2+ measurements. These cells are referred to as mPIEZO1‐TREx.
HEK 293‐TREx cells and their stably transfected derivatives or transiently transfected HEK 293 or HeLa cells were seeded at a density of 7.5 × 10^4 cells per well into poly‐D‐lysine‐coated 96‐well plates. The plates were either commercially pre‐coated with poly‐D‐lysine (Greiner Bio‐One #655946) or (Greiner Bio‐One #655090) were coated in‐house with 35 μl of a 10 μg·ml^−1 poly‐D‐lysine (Bio‐Techne, Cultrex # 3439‐100‐01) in sterile deionised water per well for at least 24 h and rinsed three times with 100 μl per well sterile D‐PBS before addition of cells. HUVECs were seeded into tissue culture‐treated 96‐well plates (Greiner Bio‐One #655090) at a density of either 2.5 × 10^4 cells 24 h before experimentation or 1.25 × 10^4 cells 48 h before experimentation. Cells were incubated with 2 μM Fura‐2‐AM (Molecular Probes™) in the presence of 0.01% (wt./vol.) pluronic F127 (Sigma‐Aldrich #P2443) in standard bath solution (SBS) for 1 h at 37°C. Cells were washed with SBS for 30 min at room temperature. Alternatively, if inhibitors were being tested, these were added at this time, immediately following a wash in SBS. (−)‐Englerin A (Akbulut et al., [2015]) was used in SBS containing 0.01% pluronic acid as a dispersing agent to minimise aggregation of compound. Unless otherwise stated, the final concentration of DMSO was 0.2% (vol./vol). Working 2000× stock solutions of test compounds were freshly made in DMSO and diluted 1000‐fold in SBS during the 30 min SBS wash/inhibitor pre‐incubation period to obtain 2× solutions for injection. When testing the highest concentration of Yoda1, KC159 and KC289 (30 μM), the final DMSO concentration was 0.6% (vol./vol.). Measurements were made at room temperature on a 96‐well fluorescence plate reader (FlexStation 3, Molecular Devices, Sunnyvale, CA, USA) controlled by SoftMax Pro software v7.0.3. Recipient wells containing 80 μl SBS/0.2% (vol./vol.) DMSO vehicle or inhibitor compound received 80 μl 2× compound at an injection rate of 1 μl·s^−1, and the pipette introduced liquids from a height setting of 70 μl. No trituration was performed. For recordings using Fura‐2, the change in intracellular Ca was indicated as the ratio of Fura‐2 emission (510 nm) intensities at 340 and 380 nm excitation. Photomultipliers were set to medium sensitivity. SBS contained 130 mM NaCl, 5 mM KCl, 8 mM D‐glucose, 10 mM HEPES, 1.2 mM MgCl2 and 1.5 mM CaCl2, and the pH was adjusted to 7.4 with NaOH. The solution was filtered through a 0.2 μm bottle‐top filter prior to use and handled aseptically thereafter.
For intracellular Ca^2+ (Ca^2+i) measurements, technical intra‐experiment replicates were used to improve confidence in the data. Analysis of individual experiments was performed to obtain mean ± SEM values. For collated analysis of independent experiments, where normal distributions were not evidenced by Shapiro–Wilk normality tests, non‐parametric distributions were assumed, and therefore, median values were used. […]

mouse portal vein = assay: Wire myography, relaxation of phenylephrine pre-constricted vein; settings: for Relaxation of portal vein: 0.1-10 μM, pre-constricted with 10 μM phenylephrine; for EC50: mouse portal vein pre-constricted with 10 μM phenylephrine, Hill fit
Procedure: Mice were anaesthetised with isoflurane (5% induction and 1.5% maintenance) in 95% O2 according to Schedule 1 procedure approved by the UK Home Office. The portal vein was quickly dissected and placed in Krebs solution. The Krebs PV solution consisted of 118 mM NaCl, 4.7 mM KCl, 2.5 mM CaCl2, 1.2 mM KH2PO4, 1.2 mM MgSO4·7H2O, 25.2 mM NaHCO3 and 11.1 mM glucose. By means of a dissecting microscope, adhering perivascular tissue was carefully removed and the vein was cut into 1 mm segments.
Vein segments were mounted onto two thin stainless steel wires in an isometric myograph (Multi Wire Myograph System 620M from Danish Myograph Technology [DMT]), for which the force transducer was calibrated once per month according to the manufacturer's instructions. The recording chamber was filled with gassed Krebs solution (95% O2/5% CO2, pH 7.4). The segments were then stretched to a normalised internal diameter according to the manufacturer's instructions. The mounted rings were kept in a 5 ml chamber containing Krebs solution at 37°C and continuously bubbled with a gas mixture of 95% O2 and 5% CO2 (pH 7.4). After an equilibration period of 60 min, the contractile function of the vessel was tested by replacing the Krebs solution by 60 mM K^+ solution. Following washout, the vein was contracted once with 10 μM phenylephrine and then Yoda1, KC159 or KC289 was applied with the concentrations of 0.1 to 10 μM. The NOS inhibitor, L‐NAME, (100 μM), was pre‐incubated for 20 min before the PIEZO1 modulator.
Because the anticipated effect of test compounds was to cause vessel relaxation, phenylephrine was applied to induce tension and the maximum value of this tension was defined as 0% relaxation (no relaxation). The value of tension immediately prior to application of phenylephrine was defined as 100% relaxation. Data are normalised to these values because, otherwise, the intrinsic variability in the absolute amount of tension induced by phenylephrine obscured exploration of the relaxant effect of compounds.
OriginPro 2020 was used for the analysis of myography data. Myography traces show readings taken every 0.5 or 1 s and were smoothed with the Savitzky–Golay filter set to 70 points. To compare the agonistic activity of Yoda1 analogues, basal vessel tension prior to compound injection was subtracted. Maximal tension in the presence of PE alone was used to define 0% relaxation. The tension value prior to PE application was defined as 100% relaxation. Following the addition of test compounds, tension readings were taken at the last time point of the treatments and expressed as percentage relaxation.

| SMILES | Peak ΔCa2+i (ΔF340/380), median fold difference compared to Yoda1 (mPIEZO1) | Ca2+ response (agonist effect) (mPIEZO1) | Potency relative to Yoda1 (mPIEZO1; mPIEZO1, from EC50 values) | EC50 (mPIEZO1) | Relaxation of portal vein (mouse portal vein) | EC50 (mouse portal vein; Mus musculus) | Relaxation in portal vein from PIEZO1ΔEC mice (mouse portal vein; endothelial PIEZO1 deletion versus control mice) | Relaxant effect after L-NAME (mouse portal vein; pre-incubation with 100 μM L-NAME) | EC50 (mouse portal vein) |
| --- | --- | --- | --- | --- | --- | --- | --- | --- | --- |
| O=C(O)c1ccccc1-c1nnc(SCc2c(Cl)cccc2Cl)s1 [KC157] | −70.6 fold | inactive |  |  |  |  |  |  |  |
| O=C([O-])c1ccc(-c2nnc(SCc3c(Cl)cccc3Cl)s2)cc1.[K+] [KC289] | +1.2 fold | larger responses than Yoda1 | approximately four times more potent than Yoda1 | 0.15 µM | concentration‐dependent relaxation | 1.2 µM | inhibited by endothelial PIEZO1 deletion | abolishes the relaxant effect |  |
| Clc1cccc(Cl)c1CSc1nnc(-c2cnccn2)s1 [Yoda1, 2‐[5‐[[(2,6‐dichlorophenyl)methyl]thio]‐1,3,4‐thiadiazol‐2‐yl]pyrazine] |  |  |  | 0.6 µM | concentration‐dependent relaxation |  |  |  |  |
| O=C(O)c1ccc(-c2nnc(SCc3c(Cl)cccc3Cl)s2)cc1 [KC159] | +1.1 fold | larger responses than Yoda1 |  | 0.28 µM | concentration‐dependent relaxation |  |  |  | 1.14 µM |
